Where two headings read alike, the source gives them in different places. Starred links: 1 amine or outer side, 2 acyl side, 3 side chain; linkers in the order of their positions; H or OH if unused. Positions of bridges follow the written chain, without caps; N, C: chain ends. Non-standard residues stand in square brackets, D forms with d. Residues, ends and D or L forms follow the SMILES beside them. *: point of attachment. NMePhe(3-Cl) = CN[C@@H](Cc1cccc(Cl)c1)C(=O)O; NMeF = CN[C@@H](Cc1ccccc1)C(=O)O; NMeGABA = CN(CCCC(=O)[*:2])[*:1]; NMeI = CC[C@H](C)[C@H](NC)C(=O)O; NMeL = CN[C@@H](CC(C)C)C(=O)O; NMeV = CN[C@H](C(=O)O)C(C)C; NMeA = CN[C@@H](C)C(=O)O; Piperidide = C1CCN(*)CC1; dNMeA = CN[C@H](C)C(=O)O; β3hA = C[C@H](N)CC(=O)O; Sar = CNCC(=O)O
Columns and labels:
[1] = PAMPA (parallel artificial membrane permeability assay); assay type: in vitro ADME; details: PAMPA
Procedure, shortened: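 Artificial membrane was 10% (w/v) egg lecithin plus 0.5% (w/v) cholesterol in dodecane on a PVDF filter. A 10 mM DMSO stock was added at 0.5% (v/v) to donor buffer (50 mM MOPSO, pH 6.5, 5.0% glycocholic acid). After 18 h at 37 °C, LC/MS or LC/UV gave donor and acceptor levels for Pe.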

[2] = Metabolic stability in human hepatic microsome; assay type: in vitro ADME; details: microsomes
[3] = membrane permeation rate (Pe), 50 mM MOPSO buffer pH 6.5 with 5.0% glycocholic acid, 37° C., 18 hours, read-out: iPAMPA Pe
[4] = pH 7.4, human hepatic microsome, NADPH(+), read-out: CL NADPH(+)

Row | SMILES | Papp at 18 hours, 50 µM ([1]; pH 6.5) [×10⁻⁶ cm/s] | microsomal CLint at 1 uM ([2]; human, pH 7.4, CL NADPH(+)) [µL/min/mg] | Papp at 18 hours, 50 µM [1, 3] [×10⁻⁶ cm/s] | microsomal CLint at 1 uM [2, 4] [µL/min/mg]
1 | CC[C@H](C)[C@@H]1NC(=O)[C@H](Cc2ccccc2)N(C)C(=O)[C@H](Cc2ccccc2)NC(=O)[C@H]([C@@H](C)O)NC(=O)[C@H](C(C)C)N(C)C(=O)[C@H](CC(C)C)NC(=O)[C@H](CC(C)C)N(C)C(=O)CCCN(C)C(=O)C[C@@H](C(=O)N2CCCCC2)NC(=O)[C@H](C)NC(=O)[C@H](C)N(C)C1=O [DP-274] ([NMeGABA][NMeL]L[NMeV]TF[NMeF]I[NMeA]AD-Piperidide; lactam N-11) | 25 | 183 | – | –
2 | CC[C@H](C)[C@H]1C(=O)N[C@H](C(=O)N2CCCCC2)CC(=O)N[C@H](C)C(=O)N[C@@H]([C@@H](C)O)C(=O)N(C)[C@@H](Cc2ccccc2)C(=O)N[C@@H](CC(C)C)C(=O)N(C)[C@@H](C)C(=O)N[C@@H](C(C)C)C(=O)N[C@@H](Cc2ccccc2)C(=O)N(C)[C@@H](CC(C)C)C(=O)N[C@@H](CC(C)C)C(=O)NCC(=O)N1C [DP-53] ([dA]T[NMeF]L[NMeA]VF[NMeL]LG[NMeI]D-Piperidide; lactam N-12) | 30 | 60 | – | –
3 | CC[C@H](C)[C@@H]1NC(=O)[C@H](C(C)C)N(C)C(=O)[C@H](C)N(C)C(=O)[C@H]([C@@H](C)O)NC(=O)[C@H](CC(C)C)N(C)C(=O)[C@H](Cc2ccccc2)NC(=O)[C@H](CC(C)C)N(C)C(=O)[C@@H](C)N(C)C(=O)C[C@@H](C(=O)N2CCCCC2)NC(=O)[C@H](C)NC(=O)[C@H](CC(C)C)N(C)C1=O [DP-417] ([dNMeA][NMeL]F[NMeL]T[NMeA][NMeV]I[NMeL]AD-Piperidide; lactam N-11) | – | – | 43 | 113
4 | CC(C)C[C@H]1C(=O)N[C@@H](C(C)C)C(=O)N(C)[C@@H](Cc2ccccc2)C(=O)NCC(=O)N[C@H](C(=O)N(C)[C@@H](Cc2ccccc2)C(=O)N(C)[C@@H](Cc2ccccc2)C(=O)N[C@@H](C)C(=O)N2CCCCC2)CC(=O)N[C@H](C)C(=O)N[C@@H]([C@@H](C)O)C(=O)N(C)[C@@H](C)C(=O)N(C)[C@@H](Cc2ccccc2)C(=O)N1C [DP-209] ([dA]T[NMeA][NMeF][NMeL]V[NMeF]GD[NMeF][NMeF]A-Piperidide; lactam N-9) | – | – | 42 | 98
5 | CC(C)C[C@H]1C(=O)N[C@@H](C)C(=O)N(C)[C@@H](Cc2ccccc2)C(=O)N(C)[C@@H](C(C)C)C(=O)N[C@@H](Cc2ccccc2)C(=O)N(C)[C@@H](C)C(=O)N(C)[C@@H](C)C(=O)N[C@H](C(=O)N2CCCCC2)CC(=O)N(C)[C@H](C)C(=O)N[C@@H]([C@@H](C)O)C(=O)N(C)[C@@H](C)C(=O)N1C [DP-474] ([dNMeA]T[NMeA][NMeL]A[NMeF][NMeV]F[NMeA][NMeA]D-Piperidide; lactam N-11) | – | – | 13 | 129
6 | CC[C@H](C)[C@H]1C(=O)N(C)[C@@H](CC(C)C)C(=O)N[C@H](C(=O)N2CCCCC2)CC(=O)N[C@H](C)C(=O)N[C@@H]([C@@H](C)O)C(=O)N(C)[C@@H](C)C(=O)N(C)[C@@H](Cc2ccccc2)C(=O)N2CCC[C@H]2C(=O)N[C@@H](C)C(=O)N(C)[C@@H](C(C)C)C(=O)N[C@@H](Cc2ccccc2)C(=O)N1C [DP-65] ([dA]T[NMeA][NMeF]PA[NMeV]F[NMeI][NMeL]D-Piperidide; lactam N-11) | 14 | 97 | – | –
7 | CC(C)C[C@@H]1NC(=O)[C@H](CC(C)C)N(C)C(=O)[C@H](C)NC(=O)[C@H](C(C)C)N(C)C(=O)CN(C)C(=O)[C@H]([C@@H](C)O)NC(=O)[C@H](C)N(C)C(=O)[C@H](CC(C)C)N(C)C(=O)[C@@H](C)NC(=O)C[C@H](C)NC1=O [DP-818] (cyclo(A[NMeL]L[β3hA][dA][NMeL][NMeA]T[Sar][NMeV])) | – | – | 2 | 1
8 | CC[C@H](C)[C@@H]1NC(=O)[C@H](CC(C)C)N(C)C(=O)[C@H](Cc2cccc(Cl)c2)N(C)C(=O)[C@@H](C(C)C)NC(=O)C[C@H](C)NC(=O)[C@H](CC(C)C)N(C)C(=O)[C@H](C)N(C)C(=O)[C@H]([C@@H](C)O)NC(=O)[C@H](Cc2cccc(Cl)c2)N(C)C(=O)[C@H](C)N(C)C1=O [DP-812] (cyclo(I[NMeA][NMePhe(3-Cl)]T[NMeA][NMeL][β3hA][dV][NMePhe(3-Cl)][NMeL])) | – | – | 34 | 222
9 | CC(C)C[C@H]1C(=O)NCC(=O)N[C@H](C(=O)N(C)[C@@H](Cc2ccccc2)C(=O)N(C)[C@@H](Cc2ccccc2)C(=O)N[C@@H](C)C(=O)N2CCCCC2)CC(=O)N[C@H](C(C)C)C(=O)N[C@@H]([C@@H](C)O)C(=O)N(C)[C@@H](C)C(=O)N(C)[C@@H](Cc2ccccc2)C(=O)N[C@@H](C(C)C)C(=O)N(C)[C@@H](Cc2ccccc2)C(=O)N1C [DP-401] ([dV]T[NMeA][NMeF]V[NMeF][NMeL]GD[NMeF][NMeF]A-Piperidide; lactam N-9) | 8.6 | 145 | – | –

Source: US9409952B2, “Peptide-compound cyclization method” (Chugai Seiyaku Kabushiki Kaisha, priority 2011, dated 2016)
